pIC50: −log10 of the molar value. Converted amounts (≈) assume the structure as drawn.
What was measured:
[1] = molecular target: Syk (Homo sapiens, UniProt P43405); assay: High throughput Syk assay (TR-FRET, KinEASE); format: biochemical; conditions: Syk TR-FRET assay of Example B2; 3 μM ATP, 0.5 nM Syk
Procedure: The following high throughput Syk assay was performed on the compounds of Table 1 as follows.
Syk activity was measured by detecting phosphorylated peptide substrate formation using antibody against phosphorylated peptide substrate. This is a time-resolved fluorescence resonance energy transfer (TR-FRET) immunoassay, based on the KinEASE Assay (Cisbio). […] Test compounds (in DMSO) were spotted into 384 well plates using a Labcyte® Echo 550 Liquid Handling System prior to addition of Syk enzyme and peptide substrate. Reaction solutions were delivered using a Multi-Flo (Bio-Tek Instruments). The enzyme and peptide solution was incubated with compound for 60 minutes at room temp before the reaction was initiated by the addition of ATP. […] The europium donor was excited using a 340-nm excitation filter with a 30-nm band pass. Energy transfer to the tracer was measured using a filter centered at 665 nm with a 10 nm bandpass. This signal was then referenced to the emission from europium peak, using a 615 nm, 10-nm bandpass filter. The “emission ratio” was calculated as the 665 nm signal divided by the 615 nm signal. Percentage of inhibition was calculated as below:
% Inhibition=100×(RatioSample−Ratio0% Inhibition)/(Ratio100% Inhibition−Ratio0% Inhibition)

[2] = Kinetic solubility study; conditions: 37 °C, kinetic from dmso stock
Procedure: The compounds tested (as listed in Table 2 below) were dissolved in dimethyl sulfoxide (DMSO) at a 10 mM concentration. A 3 μL sample aliquot of the DMSO solution is then added to 297 μL of desired aqueous media (pH 2, pH 5.4, and pH 7.4). The sample is then incubated for 24 hrs at 37° C. with shaking. After 24 hrs the samples are centrifuged, an aliquot of the supernatant liquid is removed and analyzed by HPLC. The compound concentration in the sample is determined by reference to a sample of the compound with known standard concentration.

[3] = aqueous media, pH 2, aqueous buffer
[4] = aqueous media, pH 5.4, aqueous buffer
[5] = aqueous media, pH 7.4, aqueous buffer

Row | pIC50 [1] | solubility at 24 h [2, 3] | solubility at 24 h [2, 4] | solubility at 24 h [2, 5] | solubility at 24 h ([2]; pH 2, aqueous buffer) | solubility at 24 h ([2]; pH 5.4, aqueous buffer) | solubility at 24 h ([2]; pH 7.4, aqueous buffer) | melting point | SMILES
1 | 8.52 | 98 µM (≈ 45 µg/mL) | 95 µM (≈ 43.7 µg/mL) | 95 µM (≈ 43.7 µg/mL) | – | – | – | – | COc1cc(Nc2nc(-c3cnc4c(c3)NCCO4)cn3ccnc23)ccc1N1CCOCC1 [Compound 1, 6-(2,3-dihydro-1H-pyrido[2,3-b][1,4]oxazin-7-yl)-N-(3-methoxy-4-morpholinophenyl)imidazo[1,2-a]pyrazin-8-amine]
2 | 8.15 | 100 µM (≈ 47.3 µg/mL) | 100 µM (≈ 47.3 µg/mL) | 100 µM (≈ 47.3 µg/mL) | – | – | – | – | COc1cc(Nc2nc(-c3ccc4c(c3)CNCCO4)cn3ccnc23)ccc1N1CCOCC1 [Compound 3]
3 | 8.40 | 94 µM (≈ 48.3 µg/mL) | 94 µM (≈ 48.3 µg/mL) | 57 µM (≈ 29.3 µg/mL) | – | – | – | – | COc1cc(Nc2nc(-c3ccc4c(c3)NCCO4)cn3ccnc23)ccc1N1CCN(C2COC2)CC1 [Compound 4, 6-(3,4-dihydro-2H-benzo[b][1,4]oxazin-6-yl)-N-(3-methoxy-4-(4-(oxetan-3-yl)piperazin-1-yl)phenyl)imidazo[1,2-a]pyrazin-8-amine]
4 | – | – | – | – | 94 µM (≈ 41.5 µg/mL) | 3 µM (≈ 1.32 µg/mL) | 3 µM (≈ 1.32 µg/mL) | – | COc1cc(Nc2nc(-c3ccc4cn[nH]c4c3)cn3ccnc23)ccc1N1CCOCC1 [Compound 90x, 6-(1H-indazol-6-yl)-N-(3-methoxy-4-morpholinophenyl)imidazo[1,2-a]pyrazin-8-amine, reference compound]
5 | – | – | – | – | – | – | – | 233 to 234 °C | COc1cc(Nc2nc(-c3cnc4c(c3)NCCO4)cn3ccnc23)ccc1N1CCOCC1 [Example 5a, 6-(2,3-dihydro-1H-pyrido[2,3-b][1,4]oxazin-7-yl)-N-(3-methoxy-4-morpholinophenyl)imidazo[1,2-a]pyrazin-8-amine]
